Assay results from BindingDB's records for doi:10.1016/j.bmc.2008.10.052 (Universidade Federal De Santa Maria, 2008).

molecular target: Cruzipain (Trypanosoma cruzi, UniProt P25779); experiment: Inhibition of Trypanosoma cruzi C-terminal truncated cruzain expressed in DH5alpha Escherichia coli by well-microplate spectrophotometry
Sequence (P25779 whole entry, the tested form may be a part): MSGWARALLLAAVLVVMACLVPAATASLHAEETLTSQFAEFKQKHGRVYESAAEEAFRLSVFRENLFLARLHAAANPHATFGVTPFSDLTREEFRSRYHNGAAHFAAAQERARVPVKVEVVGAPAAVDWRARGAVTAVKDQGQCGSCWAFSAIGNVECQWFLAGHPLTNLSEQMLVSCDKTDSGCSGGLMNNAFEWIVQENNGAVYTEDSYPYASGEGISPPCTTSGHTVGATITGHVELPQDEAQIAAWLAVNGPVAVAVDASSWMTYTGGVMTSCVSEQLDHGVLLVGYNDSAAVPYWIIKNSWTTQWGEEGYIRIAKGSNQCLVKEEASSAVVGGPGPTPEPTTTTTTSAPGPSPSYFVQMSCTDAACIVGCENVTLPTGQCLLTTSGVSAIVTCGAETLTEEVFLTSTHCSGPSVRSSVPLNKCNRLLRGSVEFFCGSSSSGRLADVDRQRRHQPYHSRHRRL

IC50 [µM]	Compound
100	O=[N+]([O-])c1ccc(CN=Nc2nccc(C(F)(F)F)n2)cc1 [2-(N'-4-Nitro-benzylidenehydrazino)-4-trifluoromethylpyrimidine]
100	Cc1cc(C(F)(F)F)nc(N=NCc2ccc(Cl)cc2)n1 [2-(N'-4-chloro-benzylidenehydrazino)-6-methyl-4-trifluoro-methyl-pyrimidine]
> 100	COc1ccc(CN=Nc2nccc(C(F)(F)F)n2)cc1 [2-(N'-4-methoxy-benzylidenehydrazino)-4-trifluoromethyl-pyrimidine]
> 150	FC(F)(F)c1ccnc(N=NCc2ccccc2)n1 [2-(N'-Benzylidenehydrazino)-4-trifluoromethylpyrimidine]

The remaining lines, values behind:

Compound	IC50 [µM]
COc1ccccc1CN=Nc1nc(C)cc(C(F)(F)F)n1 [2-(N'-2-Methoxy-benzylidenehydrazino)-6-methyl-4-trifluoromethyl-pyri-midine]	> 150
Cc1ccccc1CN=Nc1nccc(C(F)(F)F)n1 [2-(N'-2-Methyl-benzylidenehydrazino)-4-trifluoromethyl-pyrimidine]	> 100
Cc1cc(C(F)(F)F)nc(N=NCc2ccccc2C)n1 [2-(N'-2-Methyl-benzylidenehydrazino)-6-methyl-4-trifluoromethyl-pyrimidine]	> 100
Cc1ccc(CN=Nc2nccc(C(F)(F)F)n2)cc1 [2-(N'-4-Methyl-benzylidenehydrazino)-4-trifluoromethyl-pyrimidine]	> 100
